# Test results as given in PubChem BioAssay (NCI).
#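 Method: 48-hour compound exposure of cells in 96-well plates, five concentrations, linear interpolation of endpoints. The concentration for 50% growth inhibition is given as GI50. The concentration for full growth arrest is given as TGI.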
# Legend:
# Experiment in all cases: DTP human tumour cell line panel, 48 h
# NCI-H226 lung = test system: NCI-H226 lung
# SK-OV-3 ovarian = test system: SK-OV-3 ovarian
# DU-145 prostate = test system: DU-145 prostate
# TK-10 renal = test system: TK-10 renal
# U251 CNS = test system: U251 CNS
# SF-268 CNS = test system: SF-268 CNS
# OVCAR-4 ovarian = test system: OVCAR-4 ovarian
# UO-31 renal = test system: UO-31 renal
# SF-295 CNS = test system: SF-295 CNS
# SNB-75 CNS = test system: SNB-75 CNS
# RXF 393 renal = test system: RXF 393 renal
# CAKI-1 renal = test system: CAKI-1 renal
# OVCAR-5 ovarian = test system: OVCAR-5 ovarian
# NCI-H23 lung = test system: NCI-H23 lung
# HT29 colon = test system: HT29 colon
# SW-620 colon = test system: SW-620 colon
# HCC-2998 colon = test system: HCC-2998 colon
# NCI-H522 lung = test system: NCI-H522 lung
# KM12 colon = test system: KM12 colon
# T-47D breast = test system: T-47D breast
# EKVX NSCLC = test system: EKVX NSCLC
# SK-MEL-2 melanoma = test system: SK-MEL-2 melanoma
# RPMI-8226 leukemia = test system: RPMI-8226 leukemia
# COLO 205 colon = test system: COLO 205 colon
# NCI/ADR-RES ovarian = test system: NCI/ADR-RES ovarian
# HOP-92 NSCLC = test system: HOP-92 NSCLC
# CCRF-CEM leukemia = test system: CCRF-CEM leukemia
# PC-3 prostate = test system: PC-3 prostate
smiles,measurement,setting,value
CC(C)Oc1ccc2cc(-c3nn(CC4CCNCC4)c4ncnc(N)c34)ccc2c1,GI50,NCI-H226 lung,17.4 µM
same,TGI,NCI-H226 lung,35.2 µM
same,GI50,SK-OV-3 ovarian,13.8 µM
same,TGI,SK-OV-3 ovarian,27.9 µM
same,GI50,DU-145 prostate,14.9 µM
same,TGI,DU-145 prostate,28.4 µM
same,GI50,TK-10 renal,12.8 µM
same,TGI,TK-10 renal,25.7 µM
same,GI50,U251 CNS,9.02 µM
same,TGI,U251 CNS,21.7 µM
same,GI50,SF-268 CNS,8.8 µM
same,TGI,SF-268 CNS,23.5 µM
same,GI50,OVCAR-4 ovarian,5.24 µM
same,TGI,OVCAR-4 ovarian,19.5 µM
same,GI50,UO-31 renal,4.15 µM
same,TGI,UO-31 renal,18.9 µM
same,GI50,SF-295 CNS,3.67 µM
same,TGI,SF-295 CNS,14.2 µM
same,GI50,SNB-75 CNS,1.09 µM
same,TGI,SNB-75 CNS,15.2 µM
same,GI50,RXF 393 renal,2.78 µM
same,TGI,RXF 393 renal,9.73 µM
same,GI50,CAKI-1 renal,10.9 µM
same,TGI,CAKI-1 renal,22.9 µM
same,GI50,OVCAR-5 ovarian,11.9 µM
same,TGI,OVCAR-5 ovarian,24.1 µM
same,GI50,NCI-H23 lung,11.3 µM
same,TGI,NCI-H23 lung,25.8 µM
same,GI50,HT29 colon,2.78 µM
same,TGI,HT29 colon,12.2 µM
same,GI50,SW-620 colon,13.2 µM
same,TGI,SW-620 colon,26.8 µM
same,GI50,HCC-2998 colon,9.53 µM
same,TGI,HCC-2998 colon,24.6 µM
same,GI50,NCI-H522 lung,11 µM
same,TGI,NCI-H522 lung,25.4 µM
same,GI50,KM12 colon,12.6 µM
same,TGI,KM12 colon,26.4 µM
same,GI50,T-47D breast,9.81 µM
same,TGI,T-47D breast,24.9 µM
same,GI50,EKVX NSCLC,13.6 µM
same,TGI,EKVX NSCLC,26.9 µM
same,GI50,SK-MEL-2 melanoma,10.8 µM
same,TGI,SK-MEL-2 melanoma,24.4 µM
same,GI50,RPMI-8226 leukemia,3.1 µM
same,TGI,RPMI-8226 leukemia,12.9 µM
same,GI50,COLO 205 colon,3.39 µM
same,TGI,COLO 205 colon,13.2 µM
same,GI50,NCI/ADR-RES ovarian,6.23 µM
same,TGI,NCI/ADR-RES ovarian,19.6 µM
same,GI50,HOP-92 NSCLC,6.37 µM
same,TGI,HOP-92 NSCLC,20.8 µM
same,GI50,CCRF-CEM leukemia,3.98 µM
same,TGI,CCRF-CEM leukemia,16.9 µM
same,GI50,PC-3 prostate,12 µM
same,TGI,PC-3 prostate,25.8 µM
